Test results taken from patent US20250059166A1, “PIPERIDINYLPYRIDINYLCARBONITRILE DERIVATIVES AS INHIBITORS OF GLUTAMINYL-PEPTIDE CYCLOTRANSFERASE AND GLUTAMINYL-PEPTIDE CYCLOTRANSFERASE LIKE PROTEIN” (Boehringer Ingelheim International GmbH, priority 2023, published 2025).

Assays:
[1] = target: T1, QPCT (Homo sapiens, UniProt Q16769); assay: Assay A: biochemical QPCT activity assay (MALDI-TOF MS, CD47 peptide substrate); details: compounds of the invention; 0.5 nM enzyme, 20 μM CD47 peptide substrate; read-out: Inhibition of QPCT: IC50
T1 construct: purchased Origine (so in the source)
T1 sequence (Q16769 29-361): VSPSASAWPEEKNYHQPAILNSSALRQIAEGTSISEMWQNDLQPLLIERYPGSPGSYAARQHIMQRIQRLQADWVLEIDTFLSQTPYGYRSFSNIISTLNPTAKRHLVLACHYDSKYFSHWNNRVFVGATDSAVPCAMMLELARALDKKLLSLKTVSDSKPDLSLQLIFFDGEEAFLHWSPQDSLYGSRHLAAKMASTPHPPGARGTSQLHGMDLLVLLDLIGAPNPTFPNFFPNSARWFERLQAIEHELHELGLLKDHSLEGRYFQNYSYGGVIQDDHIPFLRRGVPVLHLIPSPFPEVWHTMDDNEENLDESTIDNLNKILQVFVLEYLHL
Description: (§1) QPCT or QPCTL dependent conversion of N-terminal glutamine to pyroglutamate of CD47 was monitored via MALDI-TOF MS. Test compounds were dissolved in 100% DMSO and serially diluted into clear 1,536-well microtiter plates. Enzymatic reactions were set up in assay buffer containing 20 mM Tris pH 7.5, 0.1 mM TCEP, 0.01% BSA, and 0.001% Tween20. […] The plates were incubated for 10 min in a humidified incubator at 24° C. Subsequently, 2.5 μL of CD47 peptide substrate surrogate (^19[…]^33) was added to each well (final concentration: 10 μM for QPCTL/20 μM for QPCT). The plates were mixed for 30 sec at 1,000 rpm and subsequently incubated for 40 min in a humidified incubator at 24° C. […] The plates were sealed with an adhesive foil, mixed for 30 s at 1,000 rpm and stored at room temperature until preparation of the MALDI target plates. […] QPCT or QPCTL activity was monitored by calculating the ratio between product and internal standard signals followed by normalization to high (100% activity) and low (0% activity) controls. Determination of compound potencies was obtained by fitting the dose-response data to a four-parameter logistical equation.

[2] = target: T2, QPCTL (Homo sapiens, UniProt Q9NXS2); assay: Assay A: biochemical QPCTL activity assay (MALDI-TOF MS, CD47 peptide substrate); details: compounds of the invention; 0.5 nM enzyme, 10 μM CD47 peptide substrate; read-out: Inhibition of QPCTL: IC50
T2 construct: made in house
T2 sequence (Q9NXS2 whole entry): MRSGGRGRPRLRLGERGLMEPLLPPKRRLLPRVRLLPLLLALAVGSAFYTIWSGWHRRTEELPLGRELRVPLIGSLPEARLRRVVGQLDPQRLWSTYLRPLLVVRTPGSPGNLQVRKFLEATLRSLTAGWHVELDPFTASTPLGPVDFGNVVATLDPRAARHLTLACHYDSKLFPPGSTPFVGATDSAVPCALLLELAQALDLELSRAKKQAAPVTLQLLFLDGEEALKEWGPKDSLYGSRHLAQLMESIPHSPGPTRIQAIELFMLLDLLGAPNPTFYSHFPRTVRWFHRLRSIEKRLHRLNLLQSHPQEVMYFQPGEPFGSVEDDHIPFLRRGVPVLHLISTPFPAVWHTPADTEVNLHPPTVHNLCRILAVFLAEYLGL
Description: as §1

[3] = test system: SIRPα signalling induced by A549 cells; assay: Assay B: SIRPα signalling assay using A549 cells; type: cell-based; details: Homo sapiens; compounds of the invention; A549 cells 48 h, Jurkat PathHunter SIRPαV1 reporter cells 5 h; read-out: Inhibition of SIRPα signalling induced by A549 cells: IC50
Description: (§2) Two cell types are independently used: the Raji cell line (lymphoblast-like human cell line derived from B lymphocytes from a Burkitt's lymphoma patient in 1963) and A549 cells (adenocarcinoma human alveolar basal epithelial cells).
(§3) Test compounds were dissolved in 100% DMSO and serially diluted into a white 384-well microtiter cell culture plate (PerkinElmer #60076780 in case of Raji assay; PDL-coated plates Greiner #781945 in case of A549 assay). 5000 Raji cells (ATCC #CC86) or 5000 A549 cells (ATCC #CCL-185) in Assay Complete Cell Plating reagent 30 (DiscoverX 93-0563R30B) were added per well. The assay plate was incubated for 48 h at 37° C., 95% humidity and 5% CO2. 15000 reporter cells (Jurkat PathHunter SIRPαV1, DiscoverX #93-1135C19) were added to each well, and the plate was incubated for 5 h at 37° C., 95% humidity and 5% CO2. Bioassay reagent 1 of the PathHunter Bioassay detection kit (DiscoverX 93-0001) was added to each well of the plate using a multichannel pipette followed by a 15 min incubation at room temperature. Afterwards bioassay reagent 2 was added followed by 60 min incubation at room temperature (incubation in the dark).
(§4) The analysis of the data was performed using the luminescence signal generated by beta-galactosidase in the PathHunter reporter cell line. The luminescence measurement was done using a Pherastar Multi-Mode Reader. Dose-response curves & IC50 data were calculated with 4-parameter sigmoidal dose response formula.

[4] = test system: SIRPα signalling induced by Raji cells; assay: Assay B: SIRPα signalling assay using Raji cells; type: cell-based; details: Homo sapiens; compounds of the invention; Raji cells 48 h, Jurkat PathHunter SIRPαV1 reporter cells 5 h; read-out: Inhibition of SIRPα signalling induced by Raji cells: IC50
Description: as §2, §3, §4

[5] = Assay C: permeability in CACO-2 cells; type: in vitro ADME; details: human, pH 7.2, compounds of the invention; for efflux ratio at 2 h: Caco-2, permeability B-A / permeability A-B; for Papp A→B at 2 h: Caco-2, apical to basolateral
Description: Caco-2 cells (1-2×10^5 cells/1 cm^2 area) are seeded on filter inserts (Costar transwell polycarbonate or PET filters, 0.4 μm pore size) and cultured (DMEM) for 10 to 25 days. Compounds are dissolved in appropriate solvent (like DMSO, 1-20 mM stock solutions). […] The transport solution (TL) is applied to the apical or basolateral donor side for measuring A-B or B-A permeability (3 filter replicates), respectively. Samples are collected at the start and end of experiment from the donor and at various time intervals for up to 2 hours also from the receiver side for concentration measurement by HPLC-MS/MS or scintillation counting. Sampled receiver volumes are replaced with fresh receiver solution.
Efflux ratio(ER)=permeabilityB−A/permeabilityA−B

| Compound | IC50 [1] [µM] | IC50 [2] [µM] | IC50 [3] [µM] | IC50 [4] [µM] | efflux ratio at 2 h [5] | Papp A→B at 2 h [5] [×10⁻⁶ cm/s] |
| --- | --- | --- | --- | --- | --- | --- |
| Cn1cnnc1C1(F)CCN(c2c(C#N)ccnc2-c2cnc3nn(C(F)(F)F)cc3c2)CC1 [Example 16] | 0.001 | 0.001 | 0.009 | 0.037 | 7.7 | 3.1 |
| Cn1cnnc1C1(F)CCN(c2c(C#N)ccnc2-c2cnc3nn(C(C)(C)C)c(Cl)c3c2)CC1 [Example 14] | < 0.001 | 0.001 | 0.012 | 0.021 | 6.9 | 12 |
| CC(C)n1nc2ncc(-c3nc(C(F)(F)F)cc(C#N)c3N3CCC(F)(c4nncn4C)CC3)cc2c1F [Example 7] | 0.002 | 0.002 | 0.039 | 0.026 | 11.9 | 5.8 |
| Cn1cnnc1C1(F)CCN(c2c(C#N)cc(Cl)nc2-c2ccc(F)nc2)CC1 [Example 37] | 0.006 | 0.002 | 0.035 | 0.095 | 2.2 | 23 |
| Cc1cnc(-c2ccc(F)nc2)c(N2CCC(F)(c3nncn3C)CC2)c1C#N [Example 41] | 0.002 | 0.001 | 0.016 | 0.071 | 2.6 | 28 |
| Cc1cc(F)ncc1-c1nccc(C#N)c1N1CCC(F)(c2nncn2C)CC1 [Example 21] | 0.006 | 0.001 | 0.115 | 0.187 | 2.4 | 18 |
| Cn1cnnc1C1(F)CCN(c2c(C#N)cc(C(F)(F)F)nc2-c2cnc3nn(C(F)(F)F)cc3c2)CC1 [Example 5] | 0.004 | 0.002 | 0.067 | 0.041 | 8.2 | 6.1 |
| Cn1cnnc1C1(F)CCN(c2c(C#N)cc(C(F)F)nc2-c2ccc(F)nc2)CC1 [Example 35] | 0.01 | 0.003 | 0.043 | 0.154 | 3.6 | 17 |
| Cc1cc(C#N)c(N2CCC(F)(c3nncn3C)CC2)c(-c2cnc3nn(C(C)(C)C)c(Cl)c3c2)n1 [Example 26] | < 0.001 | < 0.001 | 0.013 | 0.006 | 4.2 | 20 |
| Cc1cncc(-c2nccc(C#N)c2N2CCC(F)(c3nncn3C)CC2)c1 [Example 20] | 0.035 | 0.013 | 0.615 | 1.37 | 4.5 | 14 |
| Cn1cnnc1C1(F)CCN(c2c(C#N)cc(C(F)(F)F)nc2-c2cnc3nc(C(F)(F)F)nn3c2)CC1 [Example 12] | 0.029 | 0.024 | 0.599 | 0.86 | 6.9 | 4.9 |
| Cn1cnnc1C1(F)CCN(c2c(C#N)cc(Cl)nc2-c2cnc3nn(C(C)(C)C)cc3c2)CC1 [Example 36] | < 0.001 | 0.001 | 0.013 | 0.009 | 13.3 | 5.8 |
| Cn1cnnc1C1(F)CCN(c2c(C#N)ccnc2-c2cccnc2)CC1 [Example 19] | 0.062 | 0.018 | 0.41 | 2.19 | 2.6 | 11 |
| Cn1cnnc1C1(F)CCN(c2c(C#N)cc(C(C)(F)F)nc2-c2cnc3nn(C(C)(C)C)c(F)c3c2)CC1 [Example 33] | 0.001 | 0.001 | 0.026 | 0.013 | 2.2 | 31 |
| Cn1cnnc1C1(F)CCN(c2c(-c3ccc(F)nc3)ncc(Cl)c2C#N)CC1 [Example 39] | 0.006 | 0.003 | 0.106 | 0.247 | 2.9 | 16 |
| Cn1cnnc1C1(F)CCN(c2c(-c3ccc(F)nc3)ncc(C(F)(F)F)c2C#N)CC1 [Example 40] | 0.005 | 0.004 | 0.115 | 0.258 | 2.8 | 18 |
| Cn1cnnc1C1(F)CCN(c2c(C#N)ccnc2-c2cnc3nn(C(C)(C)C)c(C(F)(F)F)c3c2)CC1 [Example 15] | 0.003 | 0.004 | 0.066 | 0.069 | 1.6 | 35 |
| Cn1cnnc1C1CCN(c2c(C#N)cc(C(F)(F)F)nc2-c2cnc3nn(C(C)(C)C)c(C(F)(F)F)c3c2)CC1 [Example 13] | 0.016 | 0.008 | 0.07 | 0.054 | 5.7 | 3.7 |
| Cn1cnnc1C1(F)CCN(c2c(C#N)cc(C(F)(F)F)nc2-c2cnc3nc(C(C)(C)C)nn3c2)CC1 [Example 11] | 0.003 | 0.003 | 0.029 | 0.047 | 14.9 | 4.3 |
| Cn1cnnc1C1(F)CCN(c2c(C#N)ccnc2-n2cnc3nc(C(F)(F)F)ccc32)CC1 [Example 24] | 0.011 | 0.007 | 0.349 | 0.321 | 14.1 | 1 |
